From patent publication US5071855A, “Pharmacologically active piperidinylimidazopyridine compounds” (Dompe Farmaceutici SpA, priority 1989, dated 1991)
Structures can show the parent of a compound that is named as a salt.

What was measured:
[1] = Evaluation of the lethal dose50 (LD50), acute toxicity; conditions: in vivo, ip; mouse, 14 days; probit method
Experimental: EVALUATION OF THE LETHAL DOSE50 (LD50)
Swiss Nos (Nossau, Correzzana, Milano) mice, weighing 18 to 20 g each, on an empty stomach for 18 hours with water "ad libitum" and kept in cages with grid floor, were used. The animals, divided into groups of 10 animals each, (5M+5F) were treated intraperitoneally (10 ml/kg) with the compounds under examination dissolved in water or suspended in 0.5% carboxymethyl-cellulose. The animals were kept in the cages and the mortality occurred within the following 6 hours was noted down. At the expiring of the 6 hours the animals were allowed to eat up to the end of the experimentation which lasted 14 days. During this period all the toxic symptoms and the mortality occuring were noted.
The animals which died during the test period and those which were sacrificed at the end of the same, underwent autopsy for a macroscopic examination of their main organs. The experimental data were statistically compared with the X^2 method and LD50 was extrapolated by the `probit` method.

[2] = system: mortality induced by compound 48/80; assay: Mortality inhibition by compound 48/80; type: in vivo, Sprague Dawley Nos male rats; conditions: ip; rat, i.p., 30 minutes before 2 mg/kg i.v. compound 48/80; observed 4 hours
Experimental: MORTALITY INHIBITION BY COMPOUND 48/80
For evaluating the protection of the mortality induced by compound 48/80 administration the method described by C. J. E. Niemegeers et al. (Arch. Int. Pharmacodyn, 234,164,1978) was followed.
Sprague Dawley Nos male rats (Nossan, Correzzana, Milano) weighing 140 to 150 g, divided into groups of 10 animals each, on an empty stomach for 24 hours with water "ad libitum", were kept in cages with a grid floor, and treated intravenously with 2 mg/kg of compound 48/80 (1 ml/rat).
The animals were kept under observation for 4 hours taking note of their mortality. The results were expressed as the number of animals dead with respect to the number of treated animals. Compounds under examination or the carrier were administered 30 minutes before administration of compound 48/80 by intraperitoneal route, dissolved in H2 O (5 ml/kg) or suspended in 0.5% carboxymethylcellulose. The experimental data were submitted to the variance analysis and to subsequent multiple comparisons according to Dunnet (D. J. Finney, in "Statistical Methods in Biological assay", Ed. L. Griffin and Co. Ltd., pag. 152,1957, Edition Ames Iowa, 1971).

[3] = system: mortality induced by histamine; assay: Effect on the mortality induced by histamine; type: in vivo, male albino guinea pigs (Dunkin-Hartley); conditions: Cavia porcellus, po; guinea pig, p.o., 60 minutes before 1.25 mg/kg i.v. histamine dihydrochloride; 50% inhibition of mortality; read-out: Mortality induced by hystamine ED50 p.o.
Experimental: EFFECT ON THE MORTALITY INDUCED BY HISTAMINE
The method described by Romer D. et al. (Med. Welt. 17,791,1966) was followed and the tests were carried out on male albino guinea pigs (Dunkin-Hartley), weighing 350 to 450 g which were kept in cages with a grid floor, on an empty stomach for 24 hours with water ad libitum. The compounds under examination have been orally administered to the animals, dissolved in 0.5% carboxymethylcellulose, 60 minutes before intravenous administration of 1.25 mg/kg of histamine dihydrochloride in saline solution. In the control animals, treated with carboxymethylcellulose, the intravenous administration of histamine dihydrochloride induced a 100% mortality.
It has been evaluated ED50, which corresponds to the amount of the compound able inhibit to 50% the mortality induced by histamine: estimation of ED50 has been made applying the `probit` method (Finney D. J. "Statistical method in biological assay", pg 512,1957).

Structure (SMILES) | LD50 at 336 h [1] [mg/kg] | ED50 [2] [mg/kg] | ED50 [3] [mg/kg]
CCOCCn1c(C2CCN(C)CC2)nc2cccnc21 [Example 2, 3-(2-Ethoxyethyl)-2-(1-methylpiperidin-4-yl)-3H-imidazo [4,5-b] pyridine 1.5 fumarate] | 500 | 0.34 | 0.042
CN1CCCC(c2nc3cccnc3n2Cc2ccccc2)C1 (stereo not drawn) [Example 8, 3-Benzyl-2-(1-methylpiperidin-3-yl)-3H-imidazo [4,5-b] pyridine] | > 100 | – | 0.078
CC(C)(C)c1ccc(C(O)CCCN2CCC(C(O)(c3ccccc3)c3ccccc3)CC2)cc1 (stereo not drawn) [Terfenadine, reference compound] | – | 1.99 | –
CCOCCn1c(C2CCCN(C)C2)nc2cccnc21.O=C(O)/C=C/C(=O)O.O=C(O)/C=C/C(=O)O (stereo not drawn) [Example 5, 3-(2-Ethoxyethyl)-2-(1-methylpiperidin-3-yl)-3H-imidazo [4,5-b] pyridine difumarate] | < 100 | 0.59 | 0.05
